From ChEMBL document CHEMBL5620390, “A novel multifunctional mitochondrion-targeting NIR fluorophore probe inhibits tumour proliferation and metastasis through the PPARγ/ROS/β-catenin pathway” (Eur J Med Chem, 2023)
Activity calls are given as the source filed them. The rule behind the calls is not given here.

How the values were obtained:
B16-F10 [1] = assay: Antitumor activity against mouse B16-F10 cells inoculated in C57BL/6J mouse assessed as reduction in PPARgamma expression at 0.5 to 2 mg/kg, ip administered every other day and measured on day 22 by immunohistochemistry analysis; format: functional, organism-based; details: dose 0.5-2 mg/kg, time 22.0 day
[2] = Toxicity in C57BL/6J mouse inoculated with mouse B16-F10 cells assessed as effect on liver morphology at 2 mg/kg, ip administered every other day for 22 days by H and E staining based assay; format: organism-based; details: in vivo, 528 h, time 22 day
B16-F10 [3] = assay: Inhibition of cell metastasis in mouse B16-F10 cells assessed as reduction in MMP2 protein level at 0.31 to 1.25 uM after 24 hrs by Western blotting analysis; format: functional, cell-based; details: dose 0.31-1.25 µM
[4] = Toxicity in C57BL/6J mouse inoculated with mouse B16-F10 cells assessed as effect on kidney morphology at 2 mg/kg, ip administered every other day for 22 days by H and E staining based assay; format: organism-based; details: in vivo, 528 h, time 22 day
A-375 [5] = assay: Inhibition of ROS generation in human A-375 cells at 1.25 uM preincubated with rosiglitazone for 2 hrs followed by wash out and compound addition for 1 hr by DCFH-DA staining based inverted fluorescence microscopic analysis; format: functional; parameters: scale not given: the % may be the effect or the level left
B16-F10 [6] = assay: Inhibition of ROS generation in mouse B16-F10 cells preincubated with rosiglitazone for 2 hrs followed by wash out and compound addition for 1 hr by DCFH-DA staining based inverted fluorescence microscopic analysis; format: functional, cell-based
B16-F10 [7] = assay: Induction of ROS generation in mouse B16-F10 cells assessed as reduction in GPX1 expression level at 0.31 to 1.25 uM incubated for 24 hrs; format: functional, cell-based; details: dose 0.31-1.25 µM
B16-F10 [8] = assay: Antiproliferative activity against mouse B16-F10 cells assessed as inhibition of cell growth after 24 to 72 hrs by MTT assay; format: functional, cell-based
B16-F10 [9] = assay: Antitumor activity against mouse B16-F10 cells inoculated in mouse assessed as reduction in lung melanoma nodules at 2 mg/kg, ip administered every other day and measured on day 18 by immunohistochemistry analysis; format: functional, organism-based; details: time 18.0 day
B16-F10 [10] = assay: Antiproliferative activity against mouse B16-F10 cells assessed as inhibition of cell growth at 0.31 uM after 72 hrs by MTT assay; format: functional; parameters: scale not given: the % may be the effect or the level left
B16-F10 [11] = assay: Inhibition of Wnt/beta-catenin signaling in mouse B16-F10 cells assessed as reduction in TCF4 expression at 1.25 uM incubated for 24 hrs; format: cell-based
A-375 [12] = assay: Inhibition of Wnt/beta-catenin signaling in human A-375 cells assessed as reduction in beta-catenin expression at 1.25 uM incubated for 24 hrs; format: cell-based
B16-F10 [13] = assay: Antitumor activity against mouse B16-F10 cells inoculated in mouse assessed as reduction in spleen metastasis at 2 mg/kg, ip administered every other day and measured on day 18 by H and E staining based assay; format: functional, organism-based; details: time 18.0 day
B16-F10 [14] = assay: Antitumor activity against mouse B16-F10 cells inoculated in C57BL/6J mouse assessed as reduction in Ki-67 expression at 0.5 to 2 mg/kg, ip administered every other day and measured on day 22 by immunohistochemistry analysis; format: functional, organism-based; details: dose 0.5-2 mg/kg, time 22.0 day
A-375 [15] = assay: Induction of cell cycle arrest in human A-375 cells assessed as P21 protein accumulation at 0.31 to 1.25 uM after 24 hrs by Western blotting analysis; format: functional, cell-based; details: dose 0.31-1.25 µM
A-375 [16] = assay: Induction of ROS generation in human A-375 cells assessed as reduction in SOD2 expression level at 0.31 to 1.25 uM incubated for 24 hrs; format: functional, cell-based; details: dose 0.31-1.25 µM
B16-F10 [17] = assay: Antitumor activity against mouse B16-F10 cells inoculated in C57BL/6J mouse assessed as reduction in tumor weight at 0.5 to 2 mg/kg, ip administered every other day and measured on day 22; format: functional, organism-based; details: dose 0.5-2 mg/kg, time 22.0 day
A-375 [18] = assay: Inhibition of Wnt/beta-catenin signaling in human A-375 cells assessed as reduction in TCF4 expression at 1.25 uM preincubated with rosiglitazone for 24 hrs followed by compound addition and measured after 24 hrs in presence of H2O2; format: cell-based
B16-F10 [19] = assay: Antitumor activity against mouse Dil-stained B16-F10 cells inoculated in zebrafish assessed as reduction in tumor growth by measuring tumor fluorescence intensity at 0.31 to 1.25 uM by confocal microscopy analysis; format: functional, cell-based; details: dose 0.31-1.25 µM
HeLa = assay: Antiproliferative activity against human HeLa cells assessed as inhibition of cell growth at 0.31 uM after 72 hrs by MTT assay; format: functional; parameters: scale not given: the % may be the effect or the level left
B16-F10 [20] = assay: Induction of mitochondrial damage in mouse B16-F10 cells assessed as increase in ROS production measured upto 120 mins by DCFH-DA staining based flow cytometry analysis; format: functional, cell-based; details: dose 0.16-2.5 µM
B16-F10 [21] = assay: Induction of cell cycle arrest in mouse B16-F10 cells assessed as reduction in Cdk4 protein level at 0.31 to 1.25 uM after 24 hrs by Western blotting analysis; format: functional, cell-based; details: dose 0.31-1.25 µM
A-375 [22] = assay: Inhibition of tumor metastasis in human A-375 cells assessed as reduction in wound healing after 24 hrs; format: functional, cell-based; details: dose 0.08-1.25 µM
A-375 [23] = assay: Induction of cell cycle arrest in human A-375 cells assessed as reduction in cyclin E1 protein level at 0.31 to 1.25 uM after 24 hrs by Western blotting analysis; format: functional, cell-based; details: dose 0.31-1.25 µM
B16-F10 [24] = assay: Antitumor activity against mouse B16-F10 cells inoculated in mouse assessed as reduction in MMP9 expression at 2 mg/kg, ip administered every other day and measured on day 18 by immunohistochemistry analysis; format: functional, organism-based; details: time 18.0 day
B16-F10 [25] = assay: Induction of mitochondrial damage in mouse B16-F10 cells assessed as change in mitochondrial morphology at 2.5 uM incubated for 24 hrs by TEM analysis; format: functional, cell-based
A-375 [26] = assay: Induction of ROS generation in human A-375 cells assessed as reduction in SOD2 expression level at 1.25 uM preincubated with rosiglitazone for 24 hrs followed by compound addition for 24 hrs; format: functional, cell-based
B16-F10 [27] = assay: Induction of cell cycle arrest in mouse B16-F10 cells assessed as reduction in cyclin E1 protein level at 0.31 to 1.25 uM after 24 hrs by Western blotting analysis; format: functional, cell-based; details: dose 0.31-1.25 µM
[28] = Cytotoxicity against mouse B16-F10 cells assessed as cell viability at 40 uM incubated for 24 hrs by MTT assay; format: toxicity, cell-based; details: read-out: Activity
[29] = Drug uptake in human HeLa cells assessed as fluorescence intensity at 2.5 uM incubated for 1 hr by confocal laser scanning microscopic analysis; format: ADME, cell-based
B16-F10 [30] = assay: Inhibition of colony formation in mouse B16-F10 cells at less than 0.63 uM by crystal violet staining based assay; format: functional, cell-based
A-375 [31] = assay: Inhibition of cell metastasis in human A-375 cells assessed as reduction in MMP9 protein level at 0.31 to 1.25 uM after 24 hrs by Western blotting analysis; format: functional, cell-based; details: dose 0.31-1.25 µM
[32] = Drug uptake in mouse B16-F10 cells implanted in C57BL/6J mouse assessed as fluorescence aggregation in liver at 3 mg/kg, iv measured after 12 hrs; format: ADME, organism-based; details: in vivo
B16-F10 [33] = assay: Induction of cell cycle arrest in mouse B16-F10 cells assessed as reduction in Cdk2 protein level at 0.31 to 1.25 uM after 24 hrs by Western blotting analysis; format: functional, cell-based; details: dose 0.31-1.25 µM
B16-F10 [34] = assay: Induction of ROS generation in mouse B16-F10 cells assessed as reduction in SOD2 expression level at 1.25 uM preincubated with rosiglitazone for 24 hrs followed by compound addition for 24 hrs; format: functional, cell-based

CC[N+]1=C(/C=C/C2=C(Cl)C(=C/C=C3\N(CCCCCC(=O)O/C(=N/C4CCCCC4)NC4CCCCC4)c4ccccc4C3(C)C)/CCC2)C(C)(C)c2ccccc21.[Br-]
Activity (B16-F10 [1]): Active | Activity [2]: Non-Toxic | inhibition (B16-F10 [3]): Active | Activity [4]: Non-Toxic | Activity (A-375 [5]): >50% | Activity (B16-F10 [6]): Dose-Dependent Effect | Activity (B16-F10 [7]): Active | IC50 (B16-F10 [8]): 410 nM | Activity (B16-F10 [8]; time 24-72 hrs): Dose-Dependent Effect | Activity (B16-F10 [9]): Active | Activity (B16-F10 [10]): 70% | inhibition (B16-F10 [11]): Active | inhibition (A-375 [12]): Active | Activity (B16-F10 [13]): Active | Activity (B16-F10 [14]): Active | Activity (A-375 [15]): Active | Activity (A-375 [16]): Active | Activity (B16-F10 [17]): Active | inhibition (A-375 [18]): inactive | Activity (B16-F10 [19]): Active | Activity (HeLa): 70% | Activity (B16-F10 [20]): Dose-Dependent Effect | Activity (B16-F10 [21]): Active | inhibition (A-375 [22]): Dose-Dependent Effect | Activity (A-375 [23]): Active | Activity (B16-F10 [24]): Active | Activity (B16-F10 [25]): Active | Activity (A-375 [26]): inactive | Activity (B16-F10 [27]): Active | viability at 24 h, 40 µM [28]: 90% | Drug uptake [29]: Active | inhibition (B16-F10 [30]): Active | inhibition (A-375 [31]): Active | Drug uptake [32]: Active | Activity (B16-F10 [33]): Active | Activity (B16-F10 [34]): inactive
